Data taken from patent US12024507B2, “Compounds as GLP-1R agonists” (Terns Pharmaceuticals, Inc., priority 2021, dated 2024).

How the values were obtained:
Assay type in all cases: in vitro ADME
[1] = Metabolic stability in human hepatocytes; conditions: cryopreserved hepatocytes, 1×10^6 cells/mL; for CLint scaled at 1 μM: intrinsic clearance; for half-life at 1 μM: read-out: Human T1/2
Procedure: (§1) Test compounds were incubated in rat and human hepatocytes and stability was assessed from the substrate […] approach. Test compounds were dissolved in dimethyl sulfoxide (DMSO) to create a 10 mM Stock, and then further diluted to create a 1000×Working Stock of 1 mM with DMSO in 96-well plates for test compounds and the positive control (midazolam). Vials containing cryopreserved hepatocytes were removed from the liquid nitrogen tank and immediately immersed in a 37° C. water bath. The vials were shaken gently until the contents had thawed and were then immediately emptied into 48 mL of pre-warmed HT Medium in a 50 mL conical tube. Cells remaining in the vial were resuspended with 1.0 mL of pre-warmed HT Medium and added to the conical tube. The tube was capped and then gently inverted several times to resuspend the hepatocytes. The cell suspension was centrifuged at 50×g at room temperature for 5 minutes and the supernatant discarded. The cell pellet was loosened by gently swirling the centrifuge tube and was re-suspended in 4 mL of warm Dulbecco's Modified Eagle medium (DMEM). Cell density was determined by a cell counter by Nexcelom, and DMEM medium was added to obtain a target density of 1×10^6 cells/mL. The assay was carried out in 96-well microtiter plates. Test Compounds were incubated at 1 μM with 1×10^6 cells/mL hepatocytes in DMEM for 0, 30, 60, 120 and 240 minutes. The incubation was carried out with gentle shaking at 37° C. under a humid atmosphere of 95% air/5% CO2. The volume of the incubation mixture was 37 μL with a final 0.1% DMSO. At each of the time points, the incubation was stopped by adding 150 μL quenching solution (100% acetonitrile, 0.1% formic acid containing bucetin as an internal standard for positive ESI mode). Subsequently, the mixtures were vortexed for 20 min and centrifuged at 4,000 RPM at 10° C. The supernatant (80 μL) was transferred to a clean 96-well plate and analyzed by LC-MS/MS. Midazolam at 1 μM with a final 0.1% DMSO was included as a positive control to verify assay performance. The percent parent remaining, intrinsic and predicted hepatic clearance and t1/2 were calculated. All samples were analyzed by LC-MS/MS using an AB Sciex API 4000 instrument, coupled to a Shimadzu LC-20AD LC Pump system. Separation was achieved using a Waters Atlantis T3 dC18 reverse phase HPLC column (20 mm×2.1 mm) at a flow rate of 0.5 mL/min. The mobile phase consisted of 0.1% formic acid in water (solvent A) and 0.1% formic acid in 100% acetonitrile (solvent B). Elution conditions are detailed below.
(§2) The ion optics of each test compound were optimized for their declustering potential (DP), […] (CE), collision-cell exit potential (CXP) and used in a selected ion monitoring experiment in the positive ion mode. The peak area ratio of each test compound to internal standard was then evaluated for stability. The extent of metabolism was calculated based on the disappearance of the test compound, compared to its initial concentration. The initial rates of clearance of the test compound were calculated using the linear regression plot of semi-log % remaining of the compound versus time.
(§3) The predicted hepatic clearance (CLhep) was calculated using the well stirred method with the following formula with CLint(in vivo) normalized based on liver weight: CLint(in vivo)=CLint×Hepatocellularity×liver weight CLhep predicted=(CLint(in vivo)×Qliver)/(CLint(in vivo)+Qliver) Where Qliver ((ml/min/kg) is Liver Blood Flow
(§4) The relevant physiological parameters of liver weight, blood flow, and hepatocellularity for various species are listed below:
(§5) Results are presented in the Table B3 below for the intrinsic clearance (mL/min/kg) and half-life (t1/2).

[2] = Metabolic stability in rat hepatocytes; conditions: cryopreserved hepatocytes, 1×10^6 cells/mL; for CLint scaled at 1 μM: intrinsic clearance; for half-life at 1 μM: read-out: Rat T1/2
Procedure: as §1, §2, §3, §4, §5

[3] = Passive permeability and efflux ratio in Caco-2 cell monolayers; conditions: human, Caco-2, 5 μM, pH 7.4, 120 minutes; for Papp A→B at 120 min, 5 μM: apical to basolateral; for Papp B→A at 120 min, 5 μM: basolateral to apical
Procedure: Caco-2 cells (clone C2BBe1) were obtained from American Type Culture Collection (Manassas, VA). Cell monolayers were grown to confluence on collagen-coated, microporous membranes in 12-well assay plates. Details of the plates and their certification are shown below. The permeability assay buffer was Hanks' balanced salt solution containing 10 mM HEPES and 15 mM glucose at a pH of 7.4. The buffer in the receiver chamber also contained 1% bovine serum albumin. The dosing solution concentration was 5 μM of test article in the assay buffer. Cell monolayers were dosed on the apical side (A-to-B) or basolateral side (B-to-A) and incubated at 37° C. with 5% CO2 in a humidified incubator. Samples were taken from the donor and receiver chambers at 120 minutes. Each determination was performed in duplicate. The flux of lucifer yellow was also measured post-experimentally for each monolayer to ensure no damage was inflicted to the cell monolayers during the flux period. All samples were assayed by LC-MS/MS using electrospray ionization. The apparent permeability (Papp) and percent recovery were calculated as follows: Papp=(dCr/dt)×Vr/(A×CA) (1) Percent Recovery=100×((Vr×Cr^final)+(Vd×Cd^final))/(Vd×CN) (2), where, dCr/dt is the slope of the cumulative receiver concentration versus time in μM s^−1; Vr is the volume of the receiver compartment in cm^3; Vd is the volume of the donor compartment in cm^3; A is the area of the insert (1.13 cm^2 for 12-well); CA is the average of the nominal dosing concentration and the measured 120-minute donor concentration in μM; CN is the nominal concentration of the dosing solution in μM; Cr^final is the cumulative receiver concentration in μM at the end of the incubation period; Cd^final is the concentration of the donor in μM at the end of the incubation period. Efflux ratio (ER) is defined as Papp (B-to-A)/Papp (A-to-B).

| CLint scaled at 1 μM [1] | half-life at 1 μM [1] | CLint scaled at 1 μM [2] | half-life at 1 μM [2] | Papp A→B at 120 min, 5 μM [3] | Papp B→A at 120 min, 5 μM [3] | Structure (SMILES) |
| --- | --- | --- | --- | --- | --- | --- |
| 7.99 ± 0.99 mL/min/kg | 5.02 ± 0.623 h | 46.5 ± 2.11 mL/min/kg | 1.19 ± 0.054 h | 1.8 ×10⁻⁶ cm/s | 18.8 ×10⁻⁶ cm/s | N#Cc1ccc(COc2cccc(C3CCN(Cc4nc5ccc(-c6nnn[nH]6)cc5n4C[C@@H]4CCO4)CC3)n2)c(F)c1 [Compound 8] |
| 35.8 ± 1.06 mL/min/kg | 1.12 ± 0.0332 h | 111 ± 2.29 mL/min/kg | 0.501 ± 0.0103 h | 46.9 ×10⁻⁶ cm/s | 51.1 ×10⁻⁶ cm/s | N#Cc1ccc(COc2cccc(C3CCN(Cc4nc5ccc(-c6nc(=O)[nH]o6)cc5n4Cc4cncs4)CC3)n2)c(F)c1 [Compound 13, 3-fluoro-4-(((6-(1-((6-(3-oxo-2,3-dihydro-1,2,4-oxadiazol-5-yl)-1-(thiazol-5-ylmethyl)-1H-benzo[d]imidazol-2-yl)methyl)piperidin-4-yl)pyridin-2-yl)oxy)methyl)benzonitrile] |
